Results from patent US9944602B2, “Piperidinone herbicides” (E. I. DU PONT DE NEMOURS AND COMPANY, priority 2014, dated 2018).

Legend:
Type in all cases: in vivo
[1] = test system: blackgrass (Alopecurus myosuroides); assay: Test C preemergence blackgrass; details: Table C, scale 0 to 100
From the text: (§1) Seeds of plant species selected from blackgrass (Alopecurus myosuroides), ryegrass, Italian (Italian ryegrass, Lolium multiflorum), wheat (winter wheat, Triticum aestivum), galium (catchweed bedstraw, Galium aparine), corn (Zea mays), crabgrass, large (large crabgrass, Digitaria sanguinalis), foxtail, giant (giant foxtail, Setaria faberii), johnsongrass (Sorghum halepense), lambsquarters (Chenopodium album), morningglory (Ipomoea coccinea), yellow (yellow nutsedge, Cyperus esculentus), pigweed (Amaranthus retroflexus), ragweed (common ragweed, Ambrosia elatior), soybean (Glycine max), barnyardgrass (Echinochloa crus-galli), oilseed rape (Brassica napus), waterhemp (common waterhemp, Amaranthus rudis), and velvetleaf (Abutilon theophrasti) were planted into a blend of loam soil and sand and treated preemergence with test chemicals formulated in a non-phytotoxic solvent mixture which included a surfactant. At the same time, plants selected from these crop and weed species and also chickweed (common chickweed, Stellaria media), kochia (Kochia scoparia), and oat, wild (wild oat, Avena fatua) were planted in pots containing Sunshine Redi-Earth® planting medium comprising spaghnum peat moss, vermiculite, starter nutrients and dolomitic limestone and treated with postemergence applications of test chemicals formulated in the same manner. Plants ranged in height from 2 to 18 cm (1- to 4-leaf stage) for postemergence treatments. Treated plants and controls were maintained in a greenhouse for 13 to 15 days, after which time all species were compared to controls and visually evaluated. Plant response ratings, summarized in Table C, are based on a scale of 0 to 100 where 0 is no effect and 100 is complete control. A dash (-) response means no test result.

[2] = test system: ryegrass, Italian (Italian ryegrass, Lolium multiflorum); assay: Test C preemergence ryegrass, Italian; details: Table C, scale 0 to 100
From the text: as §1

[3] = test system: galium (catchweed bedstraw, Galium aparine); assay: Test C preemergence galium; details: Table C, scale 0 to 100
From the text: as §1

[4] = test system: crabgrass, large (large crabgrass, Digitaria sanguinalis); assay: Test C preemergence crabgrass, large; details: Table C, scale 0 to 100
From the text: as §1

[5] = test system: johnsongrass (Sorghum halepense); assay: Test C preemergence johnsongrass; details: Table C, scale 0 to 100
From the text: as §1

[6] = test system: pigweed (Amaranthus retroflexus); assay: Test C preemergence pigweed; details: Table C, scale 0 to 100
From the text: as §1

[7] = test system: ragweed (common ragweed, Ambrosia elatior); assay: Test C preemergence ragweed; details: Table C, scale 0 to 100
From the text: as §1

soybean (Glycine max) = assay: Test C preemergence soybean; details: Table C, scale 0 to 100
From the text: as §1

[8] = test system: oilseed rape (Brassica napus); assay: Test C preemergence oilseed rape; details: Table C, scale 0 to 100
From the text: as §1

[9] = test system: velvetleaf (Abutilon theophrasti); assay: Test C preemergence velvetleaf; details: Table C, scale 0 to 100
From the text: as §1

[10] = test system: wheat (winter wheat, Triticum aestivum); assay: Test C postemergence wheat; details: Table C, scale 0 to 100
From the text: as §1

[11] = test system: johnsongrass (Sorghum halepense); assay: Test C postemergence johnsongrass; details: Table C, scale 0 to 100
From the text: as §1

[12] = test system: barnyardgrass (Echinochloa crus-galli); assay: Test C postemergence barnyardgrass; details: Table C, scale 0 to 100
From the text: as §1

[13] = test system: crabgrass, large (large crabgrass, Digitaria sanguinalis); assay: Test A preemergence crabgrass, large; details: 0 to 100 scale; for Crabgrass, Large plant response rating: 125 g ai/ha, 0 no effect, 100 complete control; for Plant response rating, Crabgrass, Large: 500 g ai/ha, 0 is no effect, 100 is complete control
How it was run: (§2)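 Scores are visual injury ratings on a 0–100 scale (100 = complete control) taken about 10 d after treatment, relative to untreated greenhouse controls. Preemergence: directed soil spray over planted seeds in loam/sand; postemergence: spray onto one- to two-leaf plants 2–10 cm high; surfactant-containing solvent formulation.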

[14] = test system: morningglory (Ipomoea spp.); assay: Test A preemergence morningglory; details: 0 to 100 scale, 0 no effect, 100 complete control
How it was run: as §2

[15] = test system: velvetleaf (Abutilon theophrasti); assay: Test A preemergence velvetleaf; details: 0 to 100 scale, 0 no effect, 100 complete control
How it was run: as §2

[16] = test system: wheat (Triticum aestivum); assay: Test A preemergence wheat; details: 0 to 100 scale, 0 no effect, 100 complete control
How it was run: as §2

corn (Zea mays) = assay: Test A preemergence corn; details: 0 to 100 scale; for Corn plant response rating: 125 g ai/ha, 0 no effect, 100 complete control; for Plant response rating, Corn: 500 g ai/ha, 0 is no effect, 100 is complete control
How it was run: as §2

[17] = test system: morningglory (Ipomoea spp.); assay: Test A postemergence morningglory; details: 0 to 100 scale, 0 is no effect, 100 is complete control
How it was run: as §2

O=C1NCCC(c2cccc(C(F)(F)F)c2)C1C(=O)Nc1ccc(F)c(F)c1F (racemic) [Compound 28]
Plant response rating ([1]; 31 g ai/ha): 35
Plant response rating ([1]; 62 g ai/ha): 40
Plant response rating ([1]; 125 g ai/ha): 70
Plant response rating ([1]; 250 g ai/ha): 90
Plant response rating ([2]; 31 g ai/ha): 0
Plant response rating ([2]; 62 g ai/ha): 0
Plant response rating ([2]; 125 g ai/ha): 0
Plant response rating ([2]; 250 g ai/ha): 35
Plant response rating ([3]; 31 g ai/ha): 0
Plant response rating ([4]; 31 g ai/ha): 80
Plant response rating ([4]; 62 g ai/ha): 85
Plant response rating ([4]; 125 g ai/ha): 90
Plant response rating ([4]; 250 g ai/ha): 90
Plant response rating ([5]; 31 g ai/ha): 0
Plant response rating ([5]; 62 g ai/ha): 0
Plant response rating ([5]; 125 g ai/ha): 0
Plant response rating ([5]; 250 g ai/ha): 10
Plant response rating ([6]; 125 g ai/ha): 0
Plant response rating ([7]; 31 g ai/ha): 0
Plant response rating ([7]; 62 g ai/ha): 0
Plant response rating ([7]; 125 g ai/ha): 0
Plant response rating ([7]; 250 g ai/ha): 0
Plant response rating (soybean (Glycine max); 31 g ai/ha): 0
Plant response rating (soybean (Glycine max); 62 g ai/ha): 0
Plant response rating (soybean (Glycine max); 125 g ai/ha): 0
Plant response rating (soybean (Glycine max); 250 g ai/ha): 0
Plant response rating ([8]; 31 g ai/ha): 0
Plant response rating ([8]; 62 g ai/ha): 0
Plant response rating ([8]; 125 g ai/ha): 0
Plant response rating ([8]; 250 g ai/ha): 0
Plant response rating ([9]; 31 g ai/ha): 10
Plant response rating ([9]; 62 g ai/ha): 0
Plant response rating ([9]; 125 g ai/ha): 20
Plant response rating ([9]; 250 g ai/ha): 20

O=C1NCCC(c2cccc(C(F)(F)F)c2)C1C(=O)Nc1ccccc1Cl (racemic) [Compound 17]
Plant response rating ([10]; 31 g ai/ha): 0
Plant response rating ([10]; 62 g ai/ha): 0
Plant response rating ([10]; 125 g ai/ha): 0
Plant response rating ([10]; 250 g ai/ha): 0
Plant response rating ([11]; 31 g ai/ha): 0
Plant response rating ([11]; 62 g ai/ha): 0
Plant response rating ([11]; 125 g ai/ha): 0
Plant response rating ([11]; 250 g ai/ha): 0
Plant response rating ([12]; 31 g ai/ha): 0
Plant response rating ([12]; 62 g ai/ha): 0
Plant response rating ([12]; 125 g ai/ha): 5
Plant response rating ([12]; 250 g ai/ha): 50

O=C1NCCC(c2cccc(C(F)(F)F)c2)C1C(=O)Nc1cccc(F)c1F (centres unmarked) [Compound 9, N-(2,3-difluorophenyl)-2-oxo-4-[3-(trifluoromethyl)phenyl]-3-piperidinecarboxamide]
Crabgrass, Large plant response rating [13]: 90
Plant response rating, Crabgrass, Large [13]: 100
Morningglory plant response rating ([14]; 125 g ai/ha): 0
Morningglory plant response rating ([14]; 500 g ai/ha): 0
Velvetleaf plant response rating ([15]; 125 g ai/ha): 0
Velvetleaf plant response rating ([15]; 500 g ai/ha): 0
Wheat plant response rating ([16]; 125 g ai/ha): 20
Wheat plant response rating ([16]; 500 g ai/ha): 50
Corn plant response rating (corn (Zea mays)): 20
Plant response rating, Corn (corn (Zea mays)): 70
Plant response rating, Morningglory ([17]; 125 g ai/ha): 0
Plant response rating, Morningglory ([17]; 500 g ai/ha): 40
Plant response rating ([1]; 31 g ai/ha): 50
Plant response rating ([1]; 62 g ai/ha): 40
Plant response rating ([1]; 125 g ai/ha): 80
Plant response rating ([1]; 250 g ai/ha): 90
Plant response rating ([2]; 31 g ai/ha): 30
Plant response rating ([2]; 62 g ai/ha): 50
Plant response rating ([2]; 125 g ai/ha): 30
Plant response rating ([2]; 250 g ai/ha): 80
Plant response rating ([3]; 31 g ai/ha): 0
Plant response rating ([3]; 62 g ai/ha): 0
Plant response rating ([3]; 125 g ai/ha): 0
Plant response rating ([3]; 250 g ai/ha): 75
Plant response rating ([4]; 31 g ai/ha): 95
Plant response rating ([4]; 62 g ai/ha): 95
Plant response rating ([4]; 125 g ai/ha): 98
Plant response rating ([4]; 250 g ai/ha): 98
Plant response rating ([5]; 31 g ai/ha): 0
Plant response rating ([5]; 62 g ai/ha): 0
Plant response rating ([5]; 125 g ai/ha): 35
Plant response rating ([5]; 250 g ai/ha): 55
Plant response rating ([6]; 31 g ai/ha): 5
Plant response rating ([6]; 62 g ai/ha): 0
Plant response rating ([6]; 125 g ai/ha): 0
Plant response rating ([6]; 250 g ai/ha): 10
Plant response rating ([7]; 31 g ai/ha): 0
Plant response rating ([7]; 62 g ai/ha): 0
Plant response rating ([7]; 125 g ai/ha): 10
Plant response rating ([7]; 250 g ai/ha): 20
Plant response rating (soybean (Glycine max); 31 g ai/ha): 0
Plant response rating (soybean (Glycine max); 62 g ai/ha): 0
Plant response rating (soybean (Glycine max); 125 g ai/ha): 0
Plant response rating (soybean (Glycine max); 250 g ai/ha): 0
Plant response rating ([8]; 31 g ai/ha): 0
Plant response rating ([8]; 62 g ai/ha): 0
Plant response rating ([8]; 125 g ai/ha): 0
Plant response rating ([8]; 250 g ai/ha): 40
Plant response rating ([9]; 31 g ai/ha): 0
Plant response rating ([9]; 62 g ai/ha): 5
Plant response rating ([9]; 125 g ai/ha): 0
Plant response rating ([9]; 250 g ai/ha): 0
Plant response rating ([10]; 31 g ai/ha): 0
Plant response rating ([10]; 62 g ai/ha): 0
Plant response rating ([10]; 125 g ai/ha): 0
Plant response rating ([10]; 250 g ai/ha): 0
Plant response rating ([11]; 31 g ai/ha): 0
Plant response rating ([11]; 62 g ai/ha): 0
Plant response rating ([11]; 125 g ai/ha): 0
Plant response rating ([11]; 250 g ai/ha): 5
Plant response rating ([12]; 31 g ai/ha): 0
Plant response rating ([12]; 62 g ai/ha): 5
Plant response rating ([12]; 125 g ai/ha): 60
Plant response rating ([12]; 250 g ai/ha): 85

O=C1NCCC(c2cccc(C(F)(F)F)c2)C1C(=O)Nc1ccccc1C(F)(F)F (centres unmarked) [Compound 10, 2-oxo-N-[2-(trifluoromethyl)phenyl)-4-[3-(trifluoromethyl)phenyl]-3-piperidinecarboxamide]
Crabgrass, Large plant response rating [13]: 90
Plant response rating, Crabgrass, Large [13]: 100
Morningglory plant response rating ([14]; 125 g ai/ha): 0
Morningglory plant response rating ([14]; 500 g ai/ha): 0
Velvetleaf plant response rating ([15]; 125 g ai/ha): 0
Velvetleaf plant response rating ([15]; 500 g ai/ha): 0
Wheat plant response rating ([16]; 125 g ai/ha): 0
Wheat plant response rating ([16]; 500 g ai/ha): 0
Corn plant response rating (corn (Zea mays)): 0
Plant response rating, Corn (corn (Zea mays)): 0
Plant response rating, Morningglory ([17]; 125 g ai/ha): 0
Plant response rating, Morningglory ([17]; 500 g ai/ha): 0
